Data taken from PubChem BioAssay (NCI).
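Interpolation was linear, between the two tested concentrations surrounding the appropriate level; five concentrations were tested over 48 hours in 96-well plates. The concentration for 50% growth inhibition is given as GI50. TGI denotes the concentration required for complete inhibition of growth.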

Tests used:
Test in all cases: NCI tumour cell line growth inhibition, 48 h
NCI-H23 lung = tested on: NCI-H23 lung
NCI-H460 lung = tested on: NCI-H460 lung
NCI-H522 lung = tested on: NCI-H522 lung
NCI/ADR-RES ovarian = tested on: NCI/ADR-RES ovarian
OVCAR-3 ovarian = tested on: OVCAR-3 ovarian
OVCAR-4 ovarian = tested on: OVCAR-4 ovarian
OVCAR-5 ovarian = tested on: OVCAR-5 ovarian
OVCAR-8 ovarian = tested on: OVCAR-8 ovarian
PC-3 prostate = tested on: PC-3 prostate
RPMI-8226 leukemia = tested on: RPMI-8226 leukemia
RXF 393 renal = tested on: RXF 393 renal
SF-268 CNS = tested on: SF-268 CNS
SF-295 CNS = tested on: SF-295 CNS
SF-539 CNS = tested on: SF-539 CNS
SK-MEL-2 melanoma = tested on: SK-MEL-2 melanoma
SK-MEL-28 melanoma = tested on: SK-MEL-28 melanoma
SK-MEL-5 melanoma = tested on: SK-MEL-5 melanoma
SK-OV-3 ovarian = tested on: SK-OV-3 ovarian
SN12C renal = tested on: SN12C renal
SNB-19 CNS = tested on: SNB-19 CNS
SNB-75 CNS = tested on: SNB-75 CNS
SR leukemia = tested on: SR leukemia
SW-620 colon = tested on: SW-620 colon
T-47D breast = tested on: T-47D breast
TK-10 renal = tested on: TK-10 renal
U251 CNS = tested on: U251 CNS
UACC-257 melanoma = tested on: UACC-257 melanoma
UACC-62 melanoma = tested on: UACC-62 melanoma
UO-31 renal = tested on: UO-31 renal

## COc1ccc2c(c1)[nH]c(=O)c1c3cccnc3cn21
NCI-H23 lung
  TGI: 35300 nM
NCI-H460 lung
  GI50: 36.3 nM
  TGI: 2060 nM
NCI-H522 lung
  GI50: 22.2 nM
  TGI: 68.2 nM
NCI/ADR-RES ovarian
  GI50: 23.1 nM
  TGI: 57.1 nM
OVCAR-3 ovarian
  GI50: 25.1 nM
  TGI: 58.8 nM
OVCAR-4 ovarian
  GI50: 73.5 nM
  TGI: > 100000 nM
OVCAR-5 ovarian
  GI50: 205 nM
  TGI: > 100000 nM
OVCAR-8 ovarian
  GI50: 51.4 nM
  TGI: 21200 nM
PC-3 prostate
  GI50: 33.8 nM
RPMI-8226 leukemia
  GI50: 59.6 nM
  TGI: 32400 nM
RXF 393 renal
  GI50: 19.5 nM
  TGI: 55 nM
SF-268 CNS
  GI50: 68.6 nM
  TGI: 42700 nM
SF-295 CNS
  GI50: 33.9 nM
  TGI: 5900 nM
SF-539 CNS
  GI50: 33 nM
  TGI: 2390 nM
SK-MEL-2 melanoma
  GI50: 37 nM
  TGI: 11300 nM
SK-MEL-28 melanoma
  GI50: 54 nM
  TGI: > 100000 nM
SK-MEL-5 melanoma
  GI50: 25 nM
  TGI: 99.2 nM
SK-OV-3 ovarian
  GI50: 46.4 nM
  TGI: > 52000 nM
SN12C renal
  GI50: 80.2 nM
  TGI: > 100000 nM
SNB-19 CNS
  GI50: 51.5 nM
  TGI: > 100000 nM
SNB-75 CNS
  GI50: 31 nM
  TGI: 57300 nM
SR leukemia
  GI50: 27.1 nM
  TGI: 5750 nM
SW-620 colon
  GI50: 32.7 nM
  TGI: 13200 nM
T-47D breast
  GI50: 2720 nM
  TGI: 31600 nM
TK-10 renal
  GI50: 56 nM
  TGI: 18800 nM
U251 CNS
  GI50: 41 nM
  TGI: 12200 nM
UACC-257 melanoma
  GI50: 677 nM
  TGI: 25500 nM
UACC-62 melanoma
  GI50: 43.1 nM
  TGI: 19300 nM
UO-31 renal
  GI50: 79.7 nM
  TGI: 14600 nM
